From the supplement of paper PMC4862054 come the findings set out here.

Several values for one entry are separate records, joined by “and”; a condition that tells them apart may be missing. Equal entries are not always repeated.

Assay [1] relates to MDA-MB-453. As to the kind of experiment: normalised viability (% of control), CellTiter-Blue; higher = more viable cells (about 100 = DMSO control). To be noted: incubation time: 72 h. The method, then:
(§1)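 DSRT, CellTiter-Blue viability, 72 h incubation. Signal is normalised to DMSO and benzethonium chloride controls. Value is the normalised response at dose 9.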
In general terms: Alamar Blue is a resazurin reagent that responds to reducing activity.

Assay [2] deals with DU-4475. The description is as above. To be noted: incubation time: 72 h. The method, then: as §1
Assay [3] has as its system CAL-85-1. Described as above. The settings on record: incubation time: 72 h. The protocol:
as §1

The test system of assay [4] is CAL-51. The description is as above. To be noted: incubation time: 72 h. The protocol:
as §1

Assay [5] deals with CAL-148. The description is as above. The settings on record: incubation time: 72 h. The protocol: as §1
Assay [6] relates to HDQ-P1. The description is as above. To be noted: incubation time: 72 h. The method, then:
as §1

In assay [7] the test system is Hs578T. As to the kind of experiment: normalised response (% of control), CellTiter-Glo; higher = more viable cells (100 = DMSO, 0 = benzethonium chloride kill control). The settings on record: incubation time: 72 h. The method, boiled down: (§2)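 The table gives the normalised signal for a single concentration in each entry. Breast cancer cell lines were seeded (20 µl suspension) into 384-well plates holding compound at 5 concentrations in 10-fold steps over a compound-specific 10,000-fold range and incubated 72 h, then read for CellTox Green fluorescence (485/520 nm) and CellTiter-Glo luminescence. Normalisation on each plate used 0.1 % DMSO (100) and a positive kill control (0).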

The subject of assay [8] is MDA-MB-453. Described as above. The settings on record: incubation time: 72 h. The method, boiled down: as §2
Assay [9] concerns DU-4475. The description is as above. To be noted: incubation time: 72 h. The procedure, abridged:
as §2

For assay [10], the system named is BT-549. The description is as above. To be noted: incubation time: 72 h. The method, boiled down:
as §2

Assay [11] deals with BT-474. Described as above. The settings on record: incubation time: 72 h. The procedure, abridged:
as §2

Assay [12] has as its system CAL-51. The assay is described as above. The settings on record: incubation time: 72 h. The procedure, abridged:
as §2

The subject of assay [13] is MFM-223. The assay is described as above. To be noted: incubation time: 72 h. The method, boiled down:
as §2

Assay [14] relates to HCC1937. The assay is described as above. To be noted: incubation time: 72 h. The procedure, abridged: as §2
Assay [15] relates to HCC1599. Described as above. To be noted: incubation time: 72 h. The procedure, abridged:
as §2

For assay [16], the system named is MDA-MB-468. The assay is described as above. To be noted: incubation time: 72 h. The procedure, abridged: as §2
For assay [17], the system named is HDQ-P1. The assay is described as above. The settings on record: incubation time: 72 h. The procedure, abridged: as §2
Assay [18] has as its system SK-BR-3. Described as above. The settings on record: incubation time: 72 h. The procedure, abridged:
as §2

The test system of assay [19] is BT-549. To be noted: 72 h. The method, boiled down:
(§3)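 Two sequential readouts followed a 72 h incubation of breast cancer cell lines with compound at 5 concentrations in 10-fold steps over a compound-specific 10,000-fold range: CellTox Green fluorescence (485/520 nm) for cell death, then CellTiter-Glo luminescence, after 10 min at room temperature, for viability. Each plate was normalised to 0.1 % DMSO and a positive kill control. Dose-response curves were fitted for EC50, censored at the top concentration.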

Assay [20] has as its system CAL-51. The settings on record: 72 h. The procedure, abridged:
as §3

Assay [21] concerns CAL-120. To be noted: 72 h. The procedure, abridged:
as §3

The subject of assay [22] is MDA-MB-436. The settings on record: 72 h. The procedure, abridged:
as §3

In assay [23] the test system is CAL-148. To be noted: 72 h. The method, boiled down: as §3
Assay [24] concerns MDA-MB-468. The settings on record: 72 h. The procedure, abridged:
as §3

For assay [25], the system named is CAL-85-1. The settings on record: 72 h. The method, boiled down:
as §3

Assay [26] relates to HCC1937. To be noted: 72 h. The method, boiled down: as §3
Assay [27] has as its system SK-BR-3. To be noted: 72 h. The procedure, abridged: as §3
For assay [28], the system named is HCC1143. To be noted: 72 h. The method, boiled down: as §3

Regarding `NC(=O)c1cccc2cn(-c3ccc([C@@H]4CCCNC4)cc3)nc12` [MK-4827] (10000 nM), the normalised viability in assay [1] is 63.2%; in assay [2], 32.7%; in assay [3] it was 73.2%; in assay [4], 40.7%; in assay [5], 59.2%; in [6], 94%. Besides, the normalised response was 85.2% in [7]; 108% in assay [8]; 69.3% in assay [9]; 83.7% in assay [10]; 85.8% in [11]; 65.8% in [12]. In addition, the normalised response amounted to 106% in assay [13]; 101% in assay [14]; 91.4% in assay [15]; 45.8% in assay [16]; 94.3% in assay [17]; 73.3% in assay [18].

Regarding `O=C(c1cc(Cc2n[nH]c(=O)c3ccccc23)ccc1F)N1CCN(C(=O)C2CC2)CC1` [Olaparib], the “EC50, CellTiter-Glo” value in [19] was 4.14 µM; in assay [20], 0.0454 µM; in assay [21], above 10 µM; in [22], 1.04 µM; in [23], 1.2 µM; in assay [24] it was 1.51 µM.

On to `CO[C@H](C(=O)[C@@H](O)[C@@H](C)O)[C@@H]1Cc2cc3cc(O[C@H]4C[C@@H](O[C@@H]5C[C@@H](O)[C@H](O)[C@@H](C)O5)[C@H](O)[C@@H](C)O4)c(C)c(O)c3c(O)c2C(=O)[C@H]1O[C@H]1C[C@@H](O[C@@H]2C[C@@H](O)[C@@H](O[C@@H]3C[C@](C)(O)[C@H](O)[C@@H](C)O3)[C@@H](C)O2)[C@H](O)[C@@H](C)O1` [Plicamycin] (10000 nM), for which the normalised viability was 6.38% and 4.39% in [1]; 2.44% and 0.15% in [2]; 4.34% and 2.26% in [3]; 3.24% and 3.4% in [4]; 7.52% and 8.68% in assay [5]; 22.3% and 16% in [6]. The normalised response in assay [7] worked out at 8.19%; in [8], 16.1%; in [9] it was 1.22%; in assay [10] it was 1.99%; in [11], 9.55%; in [12] it was 9.56%. Besides, the normalised response in [13] amounted to 29.1%; in assay [14], 21%; in [15], 4.89%; in assay [16], 4.44%; in assay [17], 19.1%; in assay [18], 10.1%.

Regarding `C[C@]12C=CC(=O)C=C1CC[C@@H]1[C@@H]2C(=O)C[C@@]2(C)[C@H]1CC[C@]2(O)C(=O)CO` [Prednisone], the “EC50, CellTiter-Glo” value in assay [21] worked out at 8.39 µM.

With `C[C@]12C=CC(=O)C=C1CC[C@@H]1[C@@H]2C(=O)C[C@@]2(C)[C@H]1CC[C@]2(O)C(=O)CO` [Prednisone] (10000 nM), the normalised viability amounted to 88% in [1]; 99.3% in [2]; 103% in assay [3]; 101% in assay [4]; 103% in [5]; 122% in assay [6]. Besides, the normalised response was found to be 102% in assay [7]; 100% in assay [8]; 107% in assay [9]; 94.6% in [10]; 105% in assay [11]; 118% in [12]. The normalised response in assay [13] came out at 97.4%; in assay [14], 95.4%; in assay [15] it was 102%; in assay [16] it was 104%; in [17], 98.6%; in assay [18], 107%.

Turning to `CN1CCN(c2nc(C3=C(c4c[nH]c5ccccc45)C(=O)NC3=O)c3ccccc3n2)CC1` [Sotrastaurin] (10000 nM), the normalised viability in [1] came to 75.6%; in assay [2], 77.1%; in assay [3], 124%; in assay [4], 108%; in assay [5] it was 127%; in assay [6], 124%. The normalised response stood at 108% in [7]; 108% in [8]; 76.4% in assay [9]; 97.9% in assay [10]; 103% in [11]; 92.5% in [12]. Further, the normalised response in assay [13] is 67.4%; in [14], 118%; in assay [15] it was 82.8%; in [16], 78.6%; in assay [17] it was 86.2%; in assay [18], 67.5%.

Consider `CC/C(=C(\c1ccccc1)c1ccc(OCCN(C)C)cc1)c1ccccc1` [Tamoxifen] (10000 nM), for which the normalised viability is 17.4% in assay [1]; 108% in assay [2]; 102% in [3]; 90.2% in assay [4]; 120% in assay [5]; 78.5% in assay [6]. Further, the normalised response in assay [7] is 87.8%; in assay [8], 23.5%; in assay [9], 85.7%; in assay [10], 78.2%; in assay [11], 69.3%; in assay [12], 71.7%. Besides, the normalised response in [13] was found to be 58.2%; in [14], 51.8%; in assay [15], 73%; in assay [16] it was 77%; in assay [17], 99.1%; in [18], 53.4%.

Turning to `Cn1nnc2c(C(N)=O)ncn2c1=O` [Temozolomide] (10000 nM), the normalised viability in [1] is 100%; in assay [2], 116%; in assay [3], 107%; in [4] it was 87.8%; in assay [5], 116%; in assay [6], 31.3%. Further, the normalised response turned out to be 95.7% in assay [7]; 97.9% in assay [8]; 91.1% in assay [9]; 100% in assay [10]; 91.2% in assay [11]; 106% in [12]. In addition, the normalised response in [13] was 101%; in assay [14] it was 91.6%; in [15] it was 108%; in assay [16] it was 99.1%; in assay [17], 95.1%; in assay [18], 93.9%.

Turning to `CN1CCc2c(c3ccccc3n2Cc2ccc(C(=O)NO)cc2)C1` [Tubastatin A], the “EC50, CellTiter-Glo” value came to 7.98 µM in [19]; 6.16 µM in assay [25]; 0.297 µM in assay [20]; 1.6 µM in [26]; 8.82 µM in assay [27]; 2.35 µM in [28].

Consider `CC[C@@H]1C(=O)N(C)c2cnc(Nc3ccc(C(=O)N[C@H]4CC[C@H](N5CCN(CC6CC6)CC5)CC4)cc3OC)nc2N1C(C)C` [Volasertib] (1000 nM), for which the normalised viability in [1] came to 30.7%; in assay [2] it was 35.1%; in assay [3] it was 61.5%; in [4] it was 7.23%; in [5], 31.4%; in assay [6] it was 87.8%. Also, the normalised response in [7] is 25.4%; in assay [8] it was 62.4%; in assay [9], 66.2%; in [10] it was 29.1%; in assay [11] it was 66.4%; in [12], 26.9%. The normalised response in [13] was 51.2%; in assay [14], 66.8%; in assay [15], 28.3%; in assay [16], 48%; in [17] it was 64.7%; in [18], 27.2%.
